# Reference: patent US20250228239A1, “MOLECULES HAVING PESTICIDAL UTILITY, AND INTERMEDIATES, COMPOSITIONS, AND PROCESSES, RELATED THERETO” (priority 2024, published 2025)
# Where two headings read alike, the source gives them in different places.
# Assays:
# Format in all cases: in vivo
# [1] = system: Cabbage Looper (Trichoplusia ni, TRIPNI); assay: Bioassays on Cabbage Looper (CL), 128-well diet tray assay; settings: Trichoplusia ni; for mortality at 50 µg/cm2: 168 h, second instar larvae, 50 μg/cm^2 of test molecule on artificial diet, 25° C., five to seven days, average of eight wells, read-out: CL % Control (or Mortality) rating
# Summary of the method: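 Second-instar larvae (1–5 per well) placed on artificial diet surface-treated with 50 μg/cm^2 test molecule applied in 90:10 acetone-water and dried. Held at 25° C., 14:10 light-dark, for five to seven days. Percent mortality scored per well and averaged over eight wells.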
# [2] = system: Beet Armyworm (Spodoptera exigua, LAPHEG); assay: Bioassays on Beet Armyworm (BAW), 128-well diet tray assay; settings: Spodoptera exigua; for mortality at 50 µg/cm2: 168 h, second instar larvae, 50 μg/cm^2 of test molecule on artificial diet, 25° C., five to seven days, average of eight wells, read-out: BAW % Control (or Mortality) rating
# Summary of the method: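 One to five second-instar larvae per well on artificial diet surface-treated with 50 μg/cm^2 test molecule (applied in 90:10 acetone-water, dried), eight wells per compound. Trays held vented at 25° C., 14:10 light-dark for five to seven days; percent mortality averaged over the eight wells.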
# [3] = system: Yellow Fever Mosquito (Aedes aegypti, AEDSAE); settings: for YFM % Control (or Mortality) rating: about 1 day-old larvae, 4000 ppm master solution diluted with 90:10 water/acetone, 15 μL per well plus 220 μL larval mixture, 3 days; for YFM: Table ABC: Biological Results, species YFM
# Summary of the method: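 Mortality after 3 days at room temperature is the read-out, scored well by well and converted to a rating. Test molecules came from 4000 ppm stocks in DMSO, further diluted in 90:10 water/acetone, and were exposed to roughly 1-day-old larvae suspended in liver-powder water.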
# [4] = Cabbage Looper, Table ABC / ABC-DP rating, read-out: CL rating
# [5] = Beet Armyworm, Table ABC / ABC-DP rating, read-out: BAW rating
# [6] = Table ABC: Biological Results, species CL, read-out: CL
# [7] = Table ABC: Biological Results, species BAW, read-out: BAW
structure (smiles),measurement,setting,value
"Nc1c(F)ccc(NC(=O)c2cc(NC(=O)[C@H]3[C@H](c4ccc(F)c(C(F)(F)F)c4)C3(Cl)Cl)ccc2Cl)c1F [DP9, N-(3-amino-2,4-difluorophenyl)-2-chloro-5-((1R,3R)-2,2-dichloro-3-(4-fluoro-3-(trifluoromethyl)phenyl)cyclopropane-1-carboxamido)benzamide]",mortality at 50 µg/cm2,[1],50 to 100%
same,pest or weed control at 50 µg/cm2,[1]; [4],50 to 100%
same,mortality at 50 µg/cm2,[2],50 to 100%
same,pest or weed control at 50 µg/cm2,[2]; [5],50 to 100%
same,YFM rating,"[3]; Yellow Fever Mosquito, Table ABC / ABC-DP rating",A (80–100)
same,YFM % Control (or Mortality) rating,[3],A (80–100)
"CC(C)(C)OC(=O)N(C(=O)OC(C)(C)C)c1cc(NC(=O)c2cc(NC(=O)[C@H]3[C@H](c4ccc(Cl)c(Cl)c4)C3(Cl)Cl)ccc2Cl)c(F)cc1F [DP12, tert-Butyl-N-((tert-butoxy)carbonyl)-N-(5-(2-chloro-5-((1R,3R)-2,2-dichloro-3-(3,4-dichlorophenyl)cyclopropane-1-carboxamido)benzamido)-2,4-difluorophenyl)carbamate]",mortality at 50 µg/cm2,[1],50 to 100%
same,pest or weed control at 50 µg/cm2,[1]; [4],50 to 100%
same,mortality at 50 µg/cm2,[2],50 to 100%
same,pest or weed control at 50 µg/cm2,[2]; [5],50 to 100%
same,YFM % Control (or Mortality) rating,[3],D (No activity noticed in this bioassay)
"O=C(Nc1ccc(F)cc1F)c1cc(NC(=O)C2C(c3cc(Br)cc(S(F)(F)(F)(F)F)c3)C2(Cl)Cl)ccc1Cl (stereo not drawn) [F1032, cis-5-(3-(3-Bromo-5-(pentafluoro-λ^6-sulfanyl)phenyl)-2,2-dichiorocyclopropane-1-carboxamido)-2-chloro-N-(2,4-difluorophenyl)benzamide]",pest or weed control at 50 µg/cm2,[1]; [6],50 to 100%
same,pest or weed control at 50 µg/cm2,[2]; [7],50 to 100%
same,YFM,[3],A (80–100)
"CC(C)(C)OC(=O)Nc1c(F)ccc(NC(=O)c2cc(NC(=O)[C@H]3[C@H](c4ccc(F)c(C(F)(F)F)c4)C3(Cl)Cl)ccc2Cl)c1F [F1053, tert-Butyl-(3-(2-chloro-5-((1R,3R)-2,2-dichloro-3-(4-fluoro-3-(trifluoromethyl)phenyl)cyclopropane-1-carboxamido)benzamido)-2,6-difluorophenyl)carbamate]",pest or weed control at 50 µg/cm2,[1]; [6],50 to 100%
same,pest or weed control at 50 µg/cm2,[2]; [7],50 to 100%
same,YFM,[3],A (80–100)
"O=C(Nc1ccc(F)c(NC(=O)C(F)(F)F)c1F)c1cc(NC(=O)[C@H]2[C@H](c3ccc(Cl)c(Cl)c3)C2(Cl)Cl)ccc1Cl [F1064, 2-Chloro-5-((1R,3R)-2,2-dichloro-3-(3,4-dichlorophenyl)cyclopropane-1-carboxamido)-N-(2,4-difluoro-3-(2,2,2-trifluoroacetamido)phenyl)benzamide]",pest or weed control at 50 µg/cm2,[1]; [6],50 to 100%
same,pest or weed control at 50 µg/cm2,[2]; [7],50 to 100%
same,YFM,[3],A (80–100)
"O=C(Nc1ccc(F)c(NC(=O)C(F)F)c1F)c1cc(NC(=O)[C@H]2[C@H](c3ccc(Cl)c(Cl)c3)C2(Cl)Cl)ccc1Cl [F1065, 2-Chloro-5-((1R,3R)-2,2-dichloro-3-(3,4-dichlorophenyl)cyclopropane-1-carboxamido)-N-(3-(2,2-difluoroacetamido)-2,4-difluorophenyl)benzamide]",pest or weed control at 50 µg/cm2,[1]; [6],50 to 100%
same,pest or weed control at 50 µg/cm2,[2]; [7],50 to 100%
same,YFM,[3],A (80–100)
"CC(C)(C)OC(=O)Nc1c(F)ccc(NC(=O)c2cc(NC(=O)[C@@H]3[C@@H](c4ccc(F)c(C(F)(F)F)c4)C3(Cl)Cl)ccc2Cl)c1F [F1074, tert-Butyl-(3-(2-chloro-5-((1S,3S)-2,2-dichloro-3-(4-fluoro-3-(trifluoromethyl)phenyl)cyclopropane-1-carboxamido)benzamido)-2,6-difluorophenyl)carbamate]",pest or weed control at 50 µg/cm2,[1]; [6],50 to 100%
same,pest or weed control at 50 µg/cm2,[2]; [7],50 to 100%
same,YFM,[3],A (80–100)
"CC(=O)Nc1c(F)ccc(NC(=O)c2cc(NC(=O)[C@H]3[C@H](c4ccc(F)c(C(F)(F)F)c4)C3(Cl)Cl)ccc2Cl)c1Cl [F1161, N-(3-Acetamido-2-chloro-4-fluorophenyl)-2-chloro-5-((1R,3R)-2,2-dichloro-3-(4-fluoro-3-(trifluoromethyl)phenyl)cyclopropane-1-carboxamido)benzamide]",pest or weed control at 50 µg/cm2,[1]; [6],50 to 100%
same,pest or weed control at 50 µg/cm2,[2]; [7],50 to 100%
same,YFM,[3],A (80–100)
"O=C(Nc1ccc(F)c(NC(=O)C(F)(F)F)c1F)c1cc(NC(=O)[C@H]2[C@H](c3ccc(F)c(C(F)(F)F)c3)C2(Cl)Cl)ccc1Cl [F1169, 2-chloro-5-((1R,3R)-2,2-dichloro-3-(4-fluoro-3-(trifluoromethyl)phenyl)cyclopropane-1-carboxamido)-N-(2,4-difluoro-3-(2,2,2-trifluoroacetamido)phenyl)benzamide]",pest or weed control at 50 µg/cm2,[1]; [6],50 to 100%
same,pest or weed control at 50 µg/cm2,[2]; [7],50 to 100%
same,YFM,[3],A (80–100)
"O=C(Nc1ccc(F)c(NC(=O)C(F)(F)Cl)c1F)c1cc(NC(=O)[C@H]2[C@H](c3ccc(F)c(C(F)(F)F)c3)C2(Cl)Cl)ccc1Cl [F1170, 2-Chloro-N-(3-(2-chloro-2,2-difluoroacetamido)-2,4-difluorophenyl)-5-((1R,3R)-2,2-dichloro-3-(4-fluoro-3-(trifluoromethyl)phenyl)cyclopropane-1-carboxamido)benzamide]",pest or weed control at 50 µg/cm2,[1]; [6],50 to 100%
same,pest or weed control at 50 µg/cm2,[2]; [7],50 to 100%
same,YFM,[3],A (80–100)
"O=C(Nc1ccc(F)c(NC(=O)C(Cl)Cl)c1F)c1cc(NC(=O)[C@H]2[C@H](c3ccc(F)c(C(F)(F)F)c3)C2(Cl)Cl)ccc1Cl [F1174, 2-Chloro-5-((1R,3R)-2,2-dichloro-3-(4-fluoro-3-(trifluoromethyl)phenyl)cyclopropane-1-carboxamido)-N-(3-(2,2-dichloroacetamido)-2,4-difluorophenyl)benzamide]",pest or weed control at 50 µg/cm2,[1]; [6],50 to 100%
same,pest or weed control at 50 µg/cm2,[2]; [7],50 to 100%
same,YFM,[3],A (80–100)
"O=C(Nc1ccc(F)c(NC(=O)C(F)F)c1F)c1cc(NC(=O)[C@H]2[C@H](c3ccc(F)c(C(F)(F)F)c3)C2(Cl)Cl)ccc1Cl [F1175, 2-Chloro-5-((1R,3R)-2,2-dichloro-3-(4-fluoro-3-(trifluoromethyl)phenyl)cyclopropane-1-carboxamido)-N-(3-(2,2-difluoroacetamido)-2,4-difluorophenyl)benzamide]",pest or weed control at 50 µg/cm2,[1]; [6],50 to 100%
same,pest or weed control at 50 µg/cm2,[2]; [7],50 to 100%
same,YFM,[3],A (80–100)
"NCCCC(=O)Nc1c(F)ccc(NC(=O)c2cc(NC(=O)[C@H]3[C@H](c4ccc(Cl)c(Cl)c4)C3(Cl)Cl)ccc2Cl)c1F [F1201, N-(3-(4-Aminobutanamido)-2,4-difluorophenyl)-2-chloro-5-((1R,3R)-2,2-dichloro-3-(3,4-dichlorophenyl)cyclopropane-1-carboxamido)benzamide]",pest or weed control at 50 µg/cm2,[1]; [6],50 to 100%
same,pest or weed control at 50 µg/cm2,[2]; [7],50 to 100%
same,YFM,[3],A (80–100)
"O=C(Nc1ccc(F)cc1F)c1cc(NC(=O)C2C(c3cc(Cl)cc(S(F)(F)(F)(F)F)c3)C2(Cl)Cl)ccc1Cl (stereo not drawn) [F1233, cis-2-Chloro-5-(2,2-dichloro-3-(3-chloro-5-(pentafluoro-λ^6-sulfanyl)phenyl)cyclopropane-1-carboxamido)-I-(2,4-difluorophenyl)benzamide]",pest or weed control at 50 µg/cm2,[1]; [6],50 to 100%
same,pest or weed control at 50 µg/cm2,[2]; [7],50 to 100%
same,YFM,[3],A (80–100)
"CC(F)(F)C(=O)Nc1c(F)ccc(NC(=O)c2cc(NC(=O)[C@H]3[C@H](c4ccc(Cl)c(Cl)c4)C3(Cl)Cl)ccc2Cl)c1F [F1249, 2-Chloro-5-((1R,3R)-2,2-dichloro-3-(3,4-dichlorophenyl)cyclopropane-1-carboxamido)-N-(3-(2,2-difluoropropanamido)-2,4-difluorophenyl)benzamide]",pest or weed control at 50 µg/cm2,[1]; [6],50 to 100%
same,pest or weed control at 50 µg/cm2,[2]; [7],50 to 100%
same,YFM,[3],A (80–100)
"O=C(Nc1ccc(F)c(NC(=O)C(Cl)Cl)c1F)c1cc(NC(=O)[C@H]2[C@H](c3ccc(Cl)c(Cl)c3)C2(Cl)Cl)ccc1Cl [F1252, 2-Chloro-5-((1R,3R)-2,2-dichloro-3-(3,4-dichlorophenyl)cyclopropane-1-carboxamido)-N-(3-(2,2-dichloroacetamido)-2,4-difluorophenyl)benzamide]",pest or weed control at 50 µg/cm2,[1]; [6],50 to 100%
same,pest or weed control at 50 µg/cm2,[2]; [7],50 to 100%
same,YFM,[3],A (80–100)
"O=C(Nc1c(F)ccc(NC(=O)c2cc(NC(=O)[C@H]3[C@H](c4ccc(Cl)c(Cl)c4)C3(Cl)Cl)ccc2Cl)c1F)c1ccccc1 [F1253, N-(3-Benzamido-2,4-difluorophenyl)-2-chloro-5-((1R,3R)-2,2-dichloro-3-(3,4-dichlorophenyl)cyclopropane-1-carboxamido)benzamide]",pest or weed control at 50 µg/cm2,[1]; [6],50 to 100%
same,pest or weed control at 50 µg/cm2,[2]; [7],50 to 100%
same,YFM,[3],A (80–100)
"COCC(=O)Nc1c(F)ccc(NC(=O)c2cc(NC(=O)[C@H]3[C@H](c4ccc(Cl)c(Cl)c4)C3(Cl)Cl)ccc2Cl)c1F [F1254, 2-Chloro-5-((1R,3R)-2,2-dichloro-3-(3,4-dichlorophenyl)cyclopropane-1-carboxamido)-N-(2,4-difluoro-3-(2-methoxyacetamido)phenyl)benzamide]",pest or weed control at 50 µg/cm2,[1]; [6],50 to 100%
same,pest or weed control at 50 µg/cm2,[2]; [7],50 to 100%
same,YFM,[3],A (80–100)
